US20230270752A1, “METHODS OF TREATING PHELAN MCDERMID SYNDROME USING FARNESYL DIBENZODIAZEPINONES” (AMO Pharma Ltd., priority 2017, published 2023)
Entries after “also recorded” stand apart in the source; their conditions may differ.

Experiments:
[1] = system: Shank3b KO transgenic model of PMS; assay: Audiogenic seizure threshold test; format: in vivo; conditions: Shank3b KO mice, single dose 30 mg/kg i.p., 124 db 60 s stimulus
Method: (§1) Shank3b^-/- homozygous mice with deletions of exons 13-16, initially obtained from the Jackson Laboratory, and wild type (WT) littermates were generated on a C57BL/6J background and repeatedly backcrossed onto a C57BL/6J background for more than eight generations. The resulting Shank3 knockout (KO) mice were housed in groups of the same genotype in a temperature and humidity controlled room with a 12-h light-dark cycle (lights on 7 am to 7 pm). Room temperature and humidity were recorded continuously in the holding room. Testing was conducted during the light phase. Food and water were available ad libitum. Testing was conducted on Shank3 knockout mice and their wild type littermates, with N = 10 mice per treatment group, tested at two months of age during behavioral experiments. Mice were housed in commercial plastic cages and experiments were conducted in line with the requirements of the UK Animals (Scientific Procedures) Act, 1986. All experiments were conducted with experimenters blind to genotype and drug treatment. Animals were allowed a minimum acclimatization period of one week prior to performing any experiment. Only healthy animals were used. No prophylactic or therapeutic treatment was to be administered during the acclimatization period. […]
Seizure threshold as assessed by audiogenic seizures was assessed in a separate cohort with N = 10 per group. […]

[2] = system: person with a genetically confirmed diagnosis of Phelan McDermid Syndrome; assay: Clinical assessment of seizures and behavior in a Phelan McDermid Syndrome subject; format: in vivo; conditions: human PMS subject
Method: A person with a genetically confirmed diagnosis of Phelan McDermid Syndrome was administered AMO-01.
(§2) The study drug was prepared from a sterile bulk formulation containing 32.8 mg/mL (3.15% w/w) of the active drug substance dissolved in sterile 0.9% saline solution to produce an isotonic final dosing formulation. Each drug product vial contained 70 mg of AMO-01 drug substance in 2.134 mL of formulation (plus 2% overage). This corresponded to a total drug content of 71.4 mg of active drug substance per 2.176 mL of formula. AMO-01 was administered as a single dose via intravenous infusions over a 6 hour period, with the total dose administered as 120 mg/m^2.
Seizure frequency and Visual Evoked Potentials (VEPs) were assessed alongside clinical measures. VEPs provide a noninvasive technique to evaluate the functional integrity of visual pathways in the brain from the retina to the visual cortex via the optic nerve/optic radiations. The VEP is recorded from the head’s surface, over the visual cortex, and is extracted from ongoing EEG through signal averaging. VEPs reflect the sum of excitatory and inhibitory postsynaptic potentials occurring on apical dendrites (Zemon et al., 1986) which modulate excitatory and inhibitory signals received by the pyramidal cells. The major positive and negative peaks and troughs in VEP waveforms reflect different cellular events. The contrast-reversing checkerboard stimulus used in this study produces a positive peak at approximately 60 ms (P0 or P60), reflecting activation of the primary visual cortex from the lateral geniculate nucleus. A negative peak at approximately 75 ms (N0 or N75) reflecting depolarization and glutamatergic postsynaptic activity spreading to the superficial layers of primary visual cortex, and a positive peak at approximately 100 ms (P1 or P100) reflecting superficial hyperpolarization and GABAergic activity (Zemon et al., 1980). VEPs have been used in clinical trials; for example, an antiepileptic drug (gabapentin; Conte et al., 2009) and an infant formula (O′Connor et al., 2009). Both received FDA approval based in part on positive findings from VEP studies. Data from ongoing clinical trials at Mount Sinai provide support for use of VEPs as a measure of treatment response. Assessments of clinical response were made before treatment, after six hours of treatment, and one week, two weeks and four weeks after treatment according to the schematic in FIG. 8.

[3] = system: Shank3b KO transgenic model of PMS; assay: Excessive self-grooming test (self-injurious behavior); format: in vivo, mice; conditions: single dose 30 mg/kg i.p.
Method: as §1, with “experiment.” for “experiment. Only healthy animals were used. No prophylactic or therapeutic treatment was to be administered during the acclimatization period.”
Day 2: Excessive grooming leading to skin lesions. […] During this test, time spent grooming in all sequences: face-wiping, scratching/rubbing of head and ears, and full-body grooming was scored by an observer blind to genotype during the scoring.

[4] = system: Shank3b KO transgenic model of PMS; assay: Marble burying test (species typical behaviors); format: in vivo, mice; conditions: single dose 30 mg/kg i.p.
Method: as §1
Day 5: Activities of daily living / species typical behaviors as assessed by marble burying. […]

[5] = system: Shank3b KO transgenic model of PMS; assay: Social recognition and response to social novelty test; format: in vivo, mice; conditions: single dose 30 mg/kg i.p.
Method: as §1

[6] = system: Shank3b KO transgenic model of PMS; assay: Beam walking test (sensory motor function); format: in vivo, mice; conditions: single dose 30 mg/kg i.p.
Method: as §1
Day 4: Sensory motor function as assessed by beam walking tests. […]

[7] = system: Shank3b KO transgenic model of PMS; assay: Light dark box test (anxiety); format: in vivo, mice; conditions: single dose 30 mg/kg i.p., 4 hours before testing
Method: as §1

[8] = system: Shank3 knockout transgenic mouse model of Phelan McDermid Syndrome; assay: Behavioral testing battery overall (five days after single dose); format: in vivo, mice
Method: Shank3b^-/- homozygous mice with deletions of exons 13-16, initially obtained from the Jackson Laboratory, and wild type (WT) littermates were generated on a C57BL/6J background and repeatedly backcrossed onto a C57BL/6J background for more than eight generations. The resulting Shank3 knockout (KO) mice were housed in groups of the same genotype in a temperature and humidity controlled room with a 12-h light-dark cycle (lights on 7 am to 7 pm). Room temperature and humidity were recorded continuously in the holding room. Testing was conducted during the light phase. Food and water were available ad libitum. Testing was conducted on Shank3 knockout mice and their wild type littermates, with N = 10 mice per treatment group, tested at two months of age during behavioral experiments. Mice were housed in commercial plastic cages and experiments were conducted in line with the requirements of the UK Animals (Scientific Procedures) Act, 1986. All experiments were conducted with experimenters blind to genotype and drug treatment. Animals were allowed a minimum acclimatization period of one week prior to performing any experiment. Only healthy animals were used. No prophylactic or therapeutic treatment was to be administered during the acclimatization period.
AMO-01 from AMO Pharma Ltd was administered to mice as follows: • A. AMO-01 at a single dose of 30 mg/kg intraperitoneally in a vehicle of ethanol, PEG 400 and polysorbate 80 and 5% dextrose • B. Vehicle dosed intraperitoneally as 15 ml/kg Groups of N = 10 mice were treated 4 hours before testing on the first day of testing. Five days of testing were undertaken following the single intraperitoneal dose administered on Day 1.
The following groups were studied: • 1. Shank3b^-/- knockout mice + vehicle, N = 10 • 2. Shank3b^-/- knockout mice + AMO-01 30 mg/kg i.p., N = 10 • 3. Wild Type litter mates + vehicle, N = 10 • 4. Wild Type litter mates + AMO-01 30 mg/kg i.p., N = 10
The following tests were administered.

[9] = system: person with a genetically confirmed diagnosis of Phelan McDermid Syndrome; assay: Visual Evoked Potentials in a Phelan McDermid Syndrome subject; format: in vivo; conditions: human PMS subject, 120 mg/m^2 i.v. over 6 hours
Method: as §2
Seizure frequency and Visual Evoked Potentials (VEPs) were assessed alongside clinical measures. VEPs provide a noninvasive technique to evaluate the functional integrity of visual pathways in the brain from the retina to the visual cortex via the optic nerve/optic radiations. The VEP is recorded from the head’s surface, over the visual cortex, and is extracted from ongoing EEG through signal averaging. VEPs reflect the sum of excitatory and inhibitory postsynaptic potentials occurring on apical dendrites (Zemon et al., 1986) which modulate excitatory and inhibitory signals received by the pyramidal cells. The major positive and negative peaks and troughs in VEP waveforms reflect different cellular events. […]

Shank3 knockout mouse = conditions: Shank3 exon 4-9 deletion mouse; cited from earlier work
Shank3 knockout mice = conditions: placebo controlled, 12 weeks of treatment; cited from earlier work
[10] = system: induced pluripotent stem (IPS) cell lines derived from PMS patients; conditions: PMS patient-derived IPS cell lines; cited from earlier work
[11] = Shank3 knockout mice, 30 mg/kg i.p. single dose

CC(C)=CCC/C(C)=C/CC/C(C)=C/CN1C(=O)c2cccc(O)c2Nc2c(O)cc(O)cc21 [AMO-01, 10-farnesyl-4,6,8-trihydroxy-dibenzodiazepin-11-one]
Audiogenic seizure threshold [1]: rescue of lowered audiogenic seizure threshold | Recurrence of seizure events after infusion ([2]; 120 mg/m^2 i.v. over 6 hours): Approximately three weeks after the study drug infusion | Social, behavioral and motor changes during seizure-free period ([2]; 120 mg/m^2 i.v. over 6 hours): became more social, more engaged (e.g. better eye contact), more cooperative, less restless, and their motor skills also improved | Seizure occurrence after infusion ([2]; 120 mg/m^2 i.v. over 6 hours, baseline 3 to 4 seizures a week): seizures stopped altogether for the next two weeks | Impending seizure episode at time of infusion ([2]; single i.v. infusion 120 mg/m^2 over 6 hours): appeared to completely abort the impending seizure episode | Excessive self-grooming deficit ([3]; Shank3b-/- KO mice, Day 2): significantly reduced the deficit shown in Shank3b^-/- mice (p <0.0001). This reversal was complete | Effect on self-grooming ([3]; Wild Type mice): no significant effect | Marble burying deficit ([4]; Shank3b-/- KO mice, Day 5): significantly reduced the deficit shown in Shank3b^-/- KO mice (p <0.0001). This reversal was complete | Effect on marble burying behavior ([4]; Wild Type mice): no significant effect | Response to social novelty (time in interaction with familiar or novel mouse) ([5]; Shank3b KO mice, Day 3, 30 mg/kg): rescue of response to social novelty; also recorded: normalizes the differential response to social novelty | Response to social novelty (time in interaction with familiar or novel mouse) ([5]; Wild Type mice): not affected by treatment | Beam walking deficit ([6]; Shank3b-/- KO mice, Day 4): significantly reduced the deficit shown in Shank3b^-/- mice (p <0.0001). This reversal was complete | Effect on beam walking behavior ([6]; Wild Type mice): no significant effect | Anxiety deficit in light dark box test ([7]; Shank3b-/- KO mice, Day 1): significantly reduced the deficit shown in Shank3b^-/- mice (p <0.0001) although this reversal was not complete | Effect on light dark box anxiety behavior ([7]; Wild Type mice): no significant effect | Deficits across anxiety, grooming, sociability, sensori-motor and species typical behaviour domains [8, 11]: reversed deficits in all of these domains | Duration of rescue of the phenotype after a single dose [8, 11]: persisted for at least five days | Effect across anxiety, grooming, sociability, sensori-motor function, species typical behaviours, cognition ([8]; Wild Type mice, 30 mg/kg i.p.): without effect | Visual Evoked Potentials before vs six hours after infusion [9]: ameliorated by treatment

IGF-1: insulin-like growth factor 1 (IGF-1)
Phenotype / deficits of Shank3 knockout mouse (Shank3 knockout mouse): deficits in this model reversed; also recorded: rescue of the phenotype | Social, repetitive and aberrant behaviors (Shank3 knockout mice): improvements in social, repetitive and aberrant behaviors | Impaired post-synaptic AMPA and NMDA receptor responses / excitatory synapse deficits [10]: rescued
